Key:
H2-Kd [1] = biological target: T1, H2-Kd (Mus musculus, UniProt P01902); details: result in words; cited from earlier work
H2-Kd [2] = biological target: T1, H2-Kd; assay: In vitro pMHC binding assay; details: refolding with 10 μM peptide, 4°C, 72 hours; ELISA; result in words

T1 sequence (P01902 22-296 limits assumed): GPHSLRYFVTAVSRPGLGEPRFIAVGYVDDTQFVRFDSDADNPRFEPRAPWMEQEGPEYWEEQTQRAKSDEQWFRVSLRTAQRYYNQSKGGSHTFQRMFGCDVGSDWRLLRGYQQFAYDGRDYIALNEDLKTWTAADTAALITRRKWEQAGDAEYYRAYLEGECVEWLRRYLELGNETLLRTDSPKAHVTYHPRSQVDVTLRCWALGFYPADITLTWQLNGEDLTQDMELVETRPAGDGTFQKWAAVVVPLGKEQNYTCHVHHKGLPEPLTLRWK
T1 sequence (P61769 21-119 partner): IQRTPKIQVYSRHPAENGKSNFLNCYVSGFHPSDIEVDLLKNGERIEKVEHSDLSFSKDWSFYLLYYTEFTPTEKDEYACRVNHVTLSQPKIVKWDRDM

YIRPFETKVK
In silico-predicted MHC binding (H2-Kd [1]): poor in silico-predicted MHC binder
In vitro binding affinity to H2-Kd (H2-Kd [2]): significantly high

Source: article PMC10025090 (iScience, 2023)
